Assay results: patent publication US9174996B2, “Protein kinase inhibitors” (Astar Biotech LLC, priority 2012, dated 2015)

melting point | Compound
148 to 150 °C | Cc1ccc(-c2nc3ccc(CN4CCN(C)CC4)cc3[nH]2)cc1C#Cc1ccc(NC2CCC2)nn1 [Compound 1, N-Cyclobutyl-6-(2-(2-methyl-5-(6-((4-methylpiperazin-1-yl)methyl)-1H-benzo[d]imidazol-2-yl)phenyl)ethynyl)pyridazin-3-amine]
145 to 146 °C | Cc1ccc(-c2nc3ccc(CN4CCN(C)CC4)cc3[nH]2)cc1C#Cc1ccc(NC2CC2)nn1 [Compound 2, N-Cyclopropyl-6-(2-(2-methyl-5-(6-((4-methylpiperazin-1-yl)methyl)-1H-benzo[d]imidazol-2-yl)phenyl)ethynyl)pyridazin-3-amine]
129 to 130 °C | Cc1ccc(-c2nc3ccc(CN4CCN(C)CC4)cc3[nH]2)cc1C#Cc1ccc(NC(C)C)nn1 [Compound 4, N-Isopropyl-6-(2-(2-methyl-5-(6-((4-methylpiperazin-1-yl)methyl)-1H-benzo[d]imidazol-2-yl)phenyl)ethynyl)pyridazin-3-amine]
130 to 131 °C | CN1CCN(Cc2ccc3nc(-c4ccc(Cl)c(C#Cc5ccc(NC6CC6)nn5)c4)[nH]c3c2)CC1 [Compound 7, 6-(2-(2-Chloro-5-(6-((4-methylpiperazin-1-yl)methyl)-1H-benzo[d]imidazol-2-yl)phenyl)ethynyl)-N-cyclopropylpyridazin-3-amine]
161 to 163 °C | CN1CCN(Cc2ccc3nc(-c4ccc(Cl)c(C#Cc5ccc(NC6CCC6)nn5)c4)[nH]c3c2)CC1 [Compound 8, 6-(2-(2-Chloro-5-(6-((4-methylpiperazin-1-yl)methyl)-1H-benzo[d]imidazol-2-yl)phenyl)ethynyl)-N-cyclobutylpyridazin-3-amine]
127 to 128 °C | CC(C)Nc1ccc(C#Cc2cc(-c3nc4ccc(CN5CCN(C)CC5)cc4[nH]3)ccc2Cl)nn1 [Compound 9, 6-(2-(2-Chloro-5-(6-((4-methylpiperazin-1-yl)methyl)-1H-benzo[d]imidazol-2-yl)phenyl)ethynyl)-N-isopropylpyridazin-3-amine]
182 to 184 °C | Cc1cn(-c2ccc3nc(-c4ccc(C)c(C#Cc5cnc6cccnn56)c4)[nH]c3c2)cn1 [Compound 11, 3-(2-(2-Methyl-5-(6-(4-methyl-1H-imidazol-1-yl)-1H-benzo[d]imidazol-2-yl)phenyl)ethynyl)imidazo[1,2-b]pyridazine]
125 to 126 °C | Cc1cn(-c2ccc(NC(=O)c3ccc(C)c(C#Cc4ccc(NC5CC5)nn4)c3)cc2C(F)(F)F)cn1 [Compound 18, 3-(2-(6-(Cyclopropylamino)pyridazin-3-yl)ethynyl)-4-methyl-N-(4-(4-methyl-1H-imidazol-1-yl)-3-(trifluoromethyl)phenyl)benzamide]
141 to 143 °C | Cc1cn(-c2ccc(NC(=O)c3ccc(C)c(C#Cc4ccc(NC(C)C)nn4)c3)cc2C(F)(F)F)cn1 [Compound 19, 3-(2-(6-(Isopropylamino)pyridazin-3-yl)ethynyl)-4-methyl-N-(4-(4-methyl-1H-imidazol-1-yl)-3-(trifluoromethyl)phenyl)benzamide]
150 to 152 °C | Cc1cn(-c2ccc(NC(=O)c3ccc(Cl)c(C#Cc4ccc(NC5CC5)nn4)c3)cc2C(F)(F)F)cn1 [Compound 20, 4-Chloro-3-(2-(6-(cyclopropylamino)pyridazin-3-yl)ethynyl)-N-(4-(4-methyl-1H-imidazol-1-yl)-3-(trifluoromethyl)phenyl)benzamide]
153 to 155 °C | Cc1cn(-c2ccc(NC(=O)c3ccc(Cl)c(C#Cc4ccc(NC5CCC5)nn4)c3)cc2C(F)(F)F)cn1 [Compound 21, 4-Chloro-3-(2-(6-(cyclobutylamino)pyridazin-3-yl)ethynyl)-N-(4-(4-methyl-1H-imidazol-1-yl)-3-(trifluoromethyl)phenyl)benzamide]
133 to 135 °C | Cc1cn(-c2ccc(NC(=O)c3ccc(Cl)c(C#Cc4ccc(NC(C)C)nn4)c3)cc2C(F)(F)F)cn1 [Compound 22]
